Laboratory results taken from PubChem BioAssay AID1963597 (National Center for Advancing Translational Sciences (NCATS), 2024).
Residues, ends and D or L forms follow the SMILES beside them.

System: human liver microsomes, metabolic stability half-life
Assay: NCATS Human Liver Microsomal (HLM) Stability Profiling
Conditions: higher = more stable; screened at 1 µM (by protocol)
Method in brief: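 Substrate depletion (in vitro t1/2): 1 µM compound with 0.5 mg/mL microsomes and NADPH regenerating system, phosphate buffer pH 7.4, 37 °C. Sampled at 0, 5, 10, 15, 30, 60 min into cold acetonitrile with albendazole internal standard for MS quantification.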

SMILES | half-life
Cc1ccccc1NC(=O)Nc1cccs1 | 22.8 min
O=C(Cc1ccc(-c2ccccc2)cc1)NC1CCC1 | 1.5 min
CCCCN(CCCC)C(=O)CN1C[C@H](c2ccc3c(c2)OCO3)[C@@H](C(=O)O)[C@@H]1c1ccc(OC)cc1 | 72.6 min
CCOC(=O)c1cc(=O)c2c(OCC(COc3cccc4oc(C(=O)OCC)cc(=O)c34)OC(=O)[C@@H](N)CCCCN)cccc2o1 | 4.47 min
Cn1c(N2CCCCS2(=O)=O)nc(C(=O)NCc2ccc(F)cc2)c(O)c1=O | > 120 min
CCCn1ncc(CN2CCCC(C(=O)c3cccc(OC(C)C)c3)C2)c1C (stereo unspecified) | 8.9 min
CC(C)(C)c1ccc(-c2nc3c(N4CCN(Cc5ccc6nccnc6c5)CC4)cccc3[nH]2)cc1 | 20.5 min
OCCN1CCN(CC/C=C2/c3ccccc3Sc3ccc(C(F)(F)F)cc32)CC1 | 48.4 min
COCCOc1nc(N)c2[nH]c(=O)n(Cc3ccc(C(=O)O)cc3)c2n1 | > 120 min
CN1CCN(C(=O)c2cc(-c3cccnc3)nc3c2cnn3C)CC1 | > 120 min
COc1ccc(C2Sc3ccccc3N(CCN(C)C)C(=O)C2OC(C)=O)cc1 (stereo unspecified) | 68.1 min
Clc1ccc(CO/N=C(\Cn2ccnc2)c2ccc(Cl)cc2Cl)c(Cl)c1 | 55.1 min
CCc1cccc(CC)c1NC(=O)N1Cc2[nH]nc(NC(=O)c3ccc(N4CCN(C)CC4)cc3)c2C1 | > 120 min
Cc1c(N2C(=O)[C@@H]3[C@H](O)CCN3C2=O)ccc(C#N)c1Cl | > 120 min
CO[C@@H](Cc1ccc(OCCc2nc(-c3ccccc3)oc2C)c2ccsc12)C(=O)O | 72.2 min
CN(C)c1cccc(Oc2cnc(Nc3cccc(O)c3)nc2)c1 | 21.9 min
COC(=O)[C@H](Cc1ccccc1)NC(=O)[C@@H](N)CC(=O)O (H-Asp-Phe-OMe) | 40.7 min
COc1ccccc1CN[C@H]1C2CCN(CC2)[C@H]1C(c1ccccc1)c1ccccc1 | 35 min
CCN(CC)CCOc1ccc2c(c1)C(=O)c1cc(OCCN(CC)CC)ccc1-2 | > 120 min
CCN1CCN(C(=O)c2cc(-c3ccc(F)cc3)nc3c2cnn3C)CC1 | 99.2 min
O=C(CCNc1c(-c2ccccc2)nc2cnccn12)N1CCCC1 | 7.99 min
CCSC(=O)N1CCCCCC1 | 27.7 min
COc1ccc2nc([C@H]3CCN(Cc4cccc(C#N)c4)C3)[nH]c2c1 | 12.3 min
COc1cccc(C(=O)Nc2nc(-c3nnn(-c4ccccc4C(F)(F)F)c3C)ns2)c1 | > 120 min
O=C(NC1CC1)C1CCCN1C(=O)c1cccc(-c2ccccn2)c1 (stereo unspecified) | > 120 min
CC(C)c1ccccc1OC(=O)NCCc1ccc2ccccc2c1 | 4.54 min

SMILES | half-life
C1Cc2[nH]nc(-c3nn[nH]n3)c2C1 | > 120 min
CC(C)(C)c1coc([C@@H]2COCCN2Cc2ccc(C(=O)O)cc2)n1 | 80.9 min
O=C(NCC1CCOCC1)c1cnc(Nc2ccc(Cl)cc2Cl)nc1C(F)(F)F | 38.1 min
O=C(NC1CCN(CCCCC2(C(=O)NCC(F)(F)F)c3ccccc3-c3ccccc32)CC1)c1ccccc1-c1ccc(C(F)(F)F)cc1 | 13.5 min
CNC(=O)[C@H](Cc1ccccc1)NC(=O)[C@H](CC(C)C)[C@H](CSc1cccs1)C(=O)NO | 110 min
CCOC(=O)c1cccnc1 | 9.43 min
CC(C)c1ccc(NC(=O)C(c2ccccc2)N(C)C(=O)Cc2c[nH]c3ccccc23)cc1 (stereo unspecified) | 7.38 min
CC1(C)CCC(CN2CCN(c3ccc(C(=O)NS(=O)(=O)c4ccc(NCC5CCOCC5)c([N+](=O)[O-])c4)c(Oc4cnc5[nH]ccc5c4)c3)CC2)=C(c2ccc(Cl)cc2)C1 | 32.8 min
CCOP(=S)(OCC)O/N=C(\C#N)c1ccccc1 | 8.67 min
COc1cc2c(Oc3ccc(-c4cnc(Nc5ccc(F)cc5)n(C)c4=O)cc3F)ccnc2cc1OCCCN1CCOCC1 | 30.6 min
Cc1nc2c(-c3cnc(N)nc3)nc(N3CCOCC3)nc2n1C(C)C | > 120 min
Cc1cccc(C)c1NC(=O)c1ccccc1C(=O)O | > 120 min
Cc1ccc(O)cc1Nc1ccnc(Nc2cccc(C(N)=O)c2)n1 | 86.5 min
O=C(Nc1cccc(-c2nc3ccccc3o2)c1)c1ccccc1Cl | 9.1 min
O=c1c(N2CCN(c3cccc(Cl)c3)CC2)csc2ccc(Cl)cc12 | 12.8 min
COc1ccc2c(c1)c(CC(=O)OCC(=O)O)c(C)n2C(=O)c1ccc(Cl)cc1 | > 120 min
COc1ccncc1C(=O)NC(=O)Nc1ccc(-c2ccccc2)c(C(F)(F)F)c1 | > 120 min
C[C@]12C=CC(=O)C=C1CCC1C3C[C@@H](O)[C@](O)(C(=O)CO)[C@@]3(C)C[C@H](O)[C@@]12F (stereo partly specified) | > 120 min
COC(=O)/C=C(\C)OP(=O)(OC)OC | 19.9 min
CC(=O)[C@H]1CC[C@H]2C3CC=C4C[C@@H](O)CC[C@]4(C)C3CC[C@]12C (stereo partly specified) | 106 min
CCN(C(=O)c1sc2cc(OC)ccc2c1Cl)c1ccccc1 | 3.3 min
O=C(CSc1nc2ccccc2n1Cc1cccc(Cl)c1)N1CCN(c2ccc(F)cc2)CC1 | 0.81 min
CN(C)S(=O)(=O)c1ccc(S(=O)(=O)N(Cc2ccco2)Cc2ccccc2Cl)cc1 | 3.33 min
CCNC1(C(N)=O)CN(c2nc(C)nc3c(-c4ccc(Cl)cc4)c(-c4ccccc4Cl)nn23)C1 | 20.5 min
CCCc1nn(C)c2c(=O)[nH]c(-c3cc(S(=O)(=O)N4CCN(C)CC4)ccc3OCC)nc12 | 18.7 min
Cc1ccc(NC(=O)c2cccc(N(C)C)c2)cc1NC(=O)c1ccc(O)cc1 | 18.9 min

SMILES | half-life
C#C[C@]1(OC(C)=O)CC[C@H]2[C@@H]3CCC4=C/C(=N/O)CC[C@@H]4[C@H]3CC[C@@]21CC | 6.21 min
CN1CCN(C(=O)c2ccc3nccn3c2)CC1 | > 120 min
c1cncc(CN2CCC(n3ncc4c(N5CCOCC5)nc(-c5ccc6[nH]ccc6c5)nc43)CC2)c1 | 14.9 min
CCCC(Nc1nc(-c2ccc(NC(=O)NCC)c(OC)c2)ncc1C)c1cccnc1 (stereo unspecified) | 30.5 min
CCc1noc(-c2ccc(NCc3ccccc3)c([N+](=O)[O-])c2)n1 | 4.39 min
O=C(O)c1ccc(CN2CCC(CN[C@@H]3C[C@H]3c3ccccc3)CC2)cc1 | > 120 min
COCCc1ccc(OC[C@H](O)CNC(C)C)cc1 | > 120 min
Nc1ccc(C(=O)Nc2cccc(-c3nc(N4CCOCC4)c4oc5ncccc5c4n3)c2)cn1 | 56.2 min
ClCCN1CCCC1 | 55.7 min
Cc1c(C)n(Cc2ccccc2)c2ccc(C(=O)OCCN(C)C)cc12 | 11.1 min
CC(C)(C)C(=O)OCOP(=O)(COCCn1cnc2c(N)ncnc21)OCOC(=O)C(C)(C)C | 3.13 min
CN1CCC(Nc2ncc3ncnc(Nc4ccc(F)c(Cl)c4)c3n2)CC1 | 116 min
CCCCCCCCC=CCCCCCCCC(=O)NCCOC(=O)CC(C(=O)O)S(=O)(=O)O (stereo unspecified) | > 120 min
CCCC(CCC)C(=O)Nc1ccn([C@@H]2O[C@H](CO)[C@@H](O)C2(F)F)c(=O)n1 | > 120 min
CCOc1cc(=O)n2c(c1C(=O)Nc1ccc(C#N)cc1)CCCC2 | > 120 min
Cn1cc(-c2ccc3nnc(Sc4ccc5nn(C)cc5c4)n3n2)cn1 | > 120 min
CC1CC(C)C(=O)C(C(O)CC2CC(=O)NC(=O)C2)C1 (stereo unspecified) | > 120 min
CC1(c2ccccc2)N(Cc2ccccc2)C(=O)OC12CCN(Cc1ccc(C(=O)O)cc1)CC2 (stereo unspecified) | > 120 min
CCOC(=O)c1ccc(Nc2nc3nonc3nc2Nc2cccc(C)c2C)cc1 | 10.7 min
Cn1c(=O)c2c(ncn2CCO)n(C)c1=O | > 120 min
CN(C)c1nc(NC2CCC(NCCc3ccc(Br)cc3OC(F)(F)F)CC2)nc2ccccc12 (stereo unspecified) | > 120 min
CCc1nc(C(N)=O)c(Nc2ccc(N3CCC(N4CCN(C)CC4)CC3)c(OC)c2)nc1NC1CCOCC1 | > 120 min
COc1cc(C(=O)NC(c2ccccc2Cl)c2cc(Cl)c3cccnc3c2O)cc(OC)c1OC (stereo unspecified) | 25.6 min
Cn1ncc(Cl)c1-c1cc(C(=O)N[C@H](CN)Cc2ccc(F)c(F)c2)sc1Cl | 109 min
C[C@]12CC[C@@H]3c4ccc(O)cc4CC[C@H]3[C@@H]1CCC2=O | 34.1 min
CCC(=O)c1ccc2c(c1)N(CCCN(C)C)c1ccccc1S2 | 15.4 min

SMILES | half-life
COc1ccc(S(=O)(=O)Nc2cc(Cl)cc(Cl)c2OC)cc1N1CCNCC1 | > 120 min
Cc1cc(C(C)(C)C)c(O)c(C(C)(C)C)c1 | > 120 min
Cc1ccc(NC(=O)Nc2cccs2)c(C)c1 | 23.8 min
CC[C@]1(C2=NCCN2)Cc2ccccc2O1 | > 120 min
O=C(NCCN1CCN(c2cccc3c2OCCO3)CC1)c1ccc(F)cc1 | 34.2 min
CCCc1ccc(OCC(=O)N2CCN(C(=O)COc3ccc(CCC)cc3OC)CC2)c(OC)c1 | 2.8 min
CC(=O)N1CCN(C(=O)Cc2ccc(Nc3ncc(F)c(Nc4ccc(C(=O)Nc5ccccc5Cl)cc4)n3)cc2)CC1 | 15.6 min
CCc1ccc(-n2c(SCc3cccc(F)c3)nc3[nH]ncc3c2=O)cc1 | 80.5 min
COc1ccc(CCNc2ncnc3c2c(-c2ccccc2)cn3-c2cccc(Cl)c2)cc1OC | 3.59 min
COc1ccc(-n2nc(C3CCCN(CC4CCCCC4)C3)[nH]c2=O)cc1 (stereo unspecified) | 108 min
COCCn1c(SCC(=O)Nc2ccc(F)c(Cl)c2)nc2c(oc3ccccc32)c1=O | 7.26 min
Nc1c(I)cc(I)c(C(=O)N(CCC(=O)O)c2ccccc2)c1I | > 120 min
Cc1cccc(N(C)C(=S)Oc2ccc3ccccc3c2)c1 | 2.99 min
CCCCCn1cc(C(=O)Oc2cccc3cccnc23)c2ccccc21 | 4.97 min
C/C(=N/NC(=O)c1ccncc1)C(=O)O | > 120 min
COc1cc(NC(=O)Nc2cccc(CNC(=O)O[C@H]3CCOC3)c2)ccc1-c1cnco1 | 27.7 min
COc1ccc(CC(=O)Nc2c(C(=O)N3CCN(c4ccccc4F)CC3)oc3ccccc23)cc1OC | 5.26 min
O=C1c2ccccc2S(=O)(=O)N1CCCCN1CCN(c2ncccn2)CC1 | 24.5 min
CNc1nccc(-c2cccnc2Oc2cc(C(=O)Nc3cccc(C(F)(F)F)c3)ccc2C)n1 | 11.3 min
CCC(=C(c1ccccc1)c1ccc(OCCN(C)C)cc1)c1ccccc1 | 94.5 min
O=C(Cn1cnc2onc(-c3ccc(F)cc3)c2c1=O)Nc1cccc(C(F)(F)F)c1 | 40.4 min
Cc1c(CN2CCN(C(=O)C(C)C)CC2)sc2c(N3CCOCC3)nc(-c3cnc(N)nc3)nc12 | > 120 min
COc1ccc2nc([C@H]3CCN(Cc4ccc(C(=O)O)cc4)C3)[nH]c2c1 | > 120 min
